This passage reports IC50 results from BindingDB's records for doi:10.1016/s0960-894x(03)00648-6 (Ariad Pharmaceuticals, 2003).

As a reminder, the IC50 is the point on the concentration scale where inhibition reaches its midpoint.

The nature of the experiment: Inhibition of Src-mediated dentine resorption in rabbit-osteoclast assay.
In the case of `O=P(O)(O)C(O)(CCCNc1nc(Nc2ccccc2)c2ncn(C3CCCC3)c2n1)P(=O)(O)O`, the 50% inhibitory concentration (IC50) was 48.2 µM.

For the compound `N[C@H]1CC[C@H](Nc2nc(Nc3ccc(C(P(=O)(O)O)P(=O)(O)O)cc3)c3ncn(C4CCCC4)c3n2)CC1`, the concentration for half-maximal inhibition (IC50) was determined as 22 µM. This IC50 is about 2.2-fold lower than that of the compound before.

`N[C@H]1CC[C@H](Nc2nc(Nc3ccc(P(=O)(O)O)c(P(=O)(O)O)c3)c3ncn(C4CCCC4)c3n2)CC1` displayed an IC50 of 15.7 µM. In turn, `N[C@H]1CC[C@H](Nc2nc(Nc3ccccc3)c3ncn(C4CCCC4)c3n2)CC1` registered a half-inhibitory concentration (IC50) of 0.141 µM. In turn, `N[C@H]1CC[C@H](Nc2nc(Nc3ccc(P(=O)(O)CP(=O)(O)O)cc3)c3ncn(C4CCCC4)c3n2)CC1` yielded an IC50 of 0.041 µM. This IC50 lies about 3.4-fold lower than the previous one. The compound `O=P(O)(O)CP(=O)(O)CCCNc1nc(Nc2ccccc2)c2ncn(C3CCCC3)c2n1` came in with an IC50 of 5.23 µM. As for `CN(C)CCNc1nc(Nc2ccccc2)c2ncn(C3CCCC3)c2n1`, the half-maximal inhibitory concentration (IC50) was 9.81 µM. This IC50 is about 1.9-fold higher than that of the compound before.
